# Measurements as given in PubChem BioAssay (NCI).
# Several values for one entry are separate records, joined by “and”; a condition that tells them apart may be missing. Identical values can stand only once.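 In this assay, cells in 96-well plates receive the compound at five concentrations for 48 hours. Endpoints are linearly interpolated between the surrounding concentrations. GI50 marks 50% less growth. TGI: total growth inhibition.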
# Columns and labels:
# Assay in all cases: inhibition of tumour cell growth, NCI panel, 48 h
# SF-539 CNS = system: SF-539 CNS
# HL-60(TB) leukemia = system: HL-60(TB) leukemia
# MALME-3M melanoma = system: MALME-3M melanoma
# SF-295 CNS = system: SF-295 CNS
# KM12 colon = system: KM12 colon
# HT29 colon = system: HT29 colon
# HOP-92 NSCLC = system: HOP-92 NSCLC
# CCRF-CEM leukemia = system: CCRF-CEM leukemia
# HS 578T breast = system: HS 578T breast
# SK-MEL-5 melanoma = system: SK-MEL-5 melanoma
Structure (SMILES),TGI (SF-539 CNS) [µM],TGI (HL-60(TB) leukemia) [µM],TGI (MALME-3M melanoma) [µM],TGI (SF-295 CNS),TGI (KM12 colon),TGI (HT29 colon) [µM],TGI (HOP-92 NSCLC),TGI (CCRF-CEM leukemia) [µM],TGI (HS 578T breast) [µM],TGI (SK-MEL-5 melanoma) [µM],GI50 (HL-60(TB) leukemia) [µM],GI50 (CCRF-CEM leukemia) [µM],GI50 (SF-295 CNS) [µM]
COc1ccc(N=C(SSC(=Nc2ccc(OC)cc2)c2ccc([N+](=O)[O-])o2)c2ccc([N+](=O)[O-])o2)cc1,> 21.9,7.07,4.14,6.14 µM,2.79 µM,5.53,6.7 µM,> 22.5,5.43,19.5,,,
CCCCSC1=N/C(=C\c2ccccc2O)C(Cl)=N1,> 100,> 100,> 100,> 100 µM,> 100 µM,> 100,> 100 µM,,> 100,,,,
COc1ccc2c(C=O)c3n(c(=O)c2c1OC)CCc1cc2c(cc1-3)OCO2,> 100,> 100,> 100,> 100 µM,> 100 µM,> 100,88.5 µM,> 100,> 100,> 100,,,
Nc1ccc2ncc(Nc3ccc(Cl)c(Cl)c3)nc2c1,40.4,38.3,55.8,49.9 µM,> 100 µM,34.9,52.3 µM,65.6,,36.1,,,
CCOC(=O)c1ccc(-c2cccs2)[nH]1,> 100,> 100,> 100,> 100 µM,> 100 µM,> 100,> 76.5 µM,> 100,> 100,> 100,,,
Cc1[nH]n(C(=O)c2ccc(Cl)cc2)c(=O)c1/C=C1\C(O)=CC(=O)c2ccccc21,> 100,> 100,> 100,> 100 µM,> 100 µM,> 100,> 100 µM,> 100,,> 100,,,
COc1ccc(OC)c2c(Nc3ccc(S(=O)(=O)O)c4cc(S(=O)(=O)O)cc(S(=O)(=O)O)c34)cc(C)nc12,> 100,> 100,> 100,> 100 µM,> 100 µM,> 100,,> 100,> 100,> 100,,,
Nn1c(=S)[nH]nc(/C=C/c2c(O)ccc3ccccc23)c1=O,> 100,4.14,44.6,96.1 µM,59.5 µM,21.9,,9.7,,26.5,,,
CC1=C(C(=O)OC(C)(C)C)C(c2ccc([N+](=O)[O-])cc2)C(C(=O)OC(C)(C)C)=C(C)N1,34.9,,,46.2 µM,38.5 µM,48.8,29.7 µM,,43.4,32.9,,,
CCCCN1/C(=N/Nc2n[nH]c(=O)c3ccccc23)SCC1c1ccc(Cl)cc1 (centres undefined),33.1,> 100,62,22.6 µM,19.6 µM,96.1,> 100 µM,,56.2,14.3,,,
CN1OC(CO)CC12C1CC3CC(C1)CC2C3 (centres undefined),> 100,> 100,> 100,> 100 µM,> 100 µM,> 100,> 100 µM,> 100,,> 100,,,
O=CC12CCCN1CCC2,,,> 100,> 100 µM,,> 100,,> 100,,> 100,,,
FC(F)(Sc1nc2ccccc2[nH]1)c1nc2ccccc2o1,> 100,,> 100,> 100 µM,> 100 µM,> 100,> 100 µM,> 100,> 100,> 100,,,
CC(=O)OC1C(C)OC(OC2C[C@](O)(C(C)=O)Cc3c(O)c4c(c(O)c32)C(=O)c2ccccc2C4=O)C(F)C1OC(C)=O (some centres undefined),1.03,,4.08,1.47 µM,> 100 µM,> 100,6.52 µM,1.51,9.89,2.18,,,
NNC(=O)COc1nc(-c2cccs2)nc2ccc(I)cc12,,> 100,45.1,86.2 µM,41.5 µM,> 100,61.8 µM,88.4,,45,37.9,20,
Cc1ccc(C(=O)C2CC3(CCC2(O)c2ccc(C)cc2)CC(=O)Nc2ccccc2C3=O)cc1 (centres undefined),> 100,> 100,> 100,> 100 µM,,> 100,> 100 µM,> 100,> 100,97.6,,,
N#Cc1c(N)n(-c2nc3ccccc3s2)c(=O)c2cc([N+](=O)[O-])ccc12,28,24.9,36.7,> 64.9 µM,> 51.3 µM,14.3,42.3 µM,18.9,36.9,,,,
CCCCCCCCCCCC1=C(O)C(=O)C=C(O)C1=O,23.3,12.6,16.5,17.4 µM,31.6 µM,50.2,11.7 µM,36.7,,10.4,,,
O=C(C[N+]1(c2ccccc2)CCOCC1)c1ccccc1,,,> 100,> 100 µM,> 100 µM,> 100,> 100 µM,,> 100,> 100,,,
NS(=O)(=O)C1CCCCC1C(=O)NNC(=O)C(=O)Nc1nc(=S)[nH][nH]1 (centres undefined),> 100,> 100,,> 100 µM,> 100 µM,> 100,> 100 µM,> 100,,> 100,,,
Nc1nc2c(ccc3ccccc32)[nH]1,> 10,> 10,> 10,> 10 µM,> 10 µM,> 10,,> 10,> 10,> 10,,,
COC1=C(C)C(=O)C2=C(C1=O)C1C3CC4=C(C(=O)C(OC)=C(C)C4=O)C(CNC(=O)C(C)=O)N3C(C#N)C(C2)N1C (centres undefined),,,,0.253 µM and 0.383 µM,0.0313 µM and 0.0726 µM,,0.00425 µM and 0.0162 µM,,0.00238,,,,0.000966
O=C1Cc2c([nH]c3c(Br)cccc23)-c2ccccc2N1,> 100,73.8,> 100,> 100 µM,> 100 µM,> 100,,35.6,> 100,> 100,,,
N=c1sc(N2CCOCC2)nn1CC(=O)c1ccccc1,,> 100,> 100,> 100 µM,> 100 µM,> 100,,> 100,> 100,> 100,,,

Structure (SMILES),TGI (SF-539 CNS) [µM],TGI (HL-60(TB) leukemia) [µM],TGI (MALME-3M melanoma) [µM],TGI (SF-295 CNS),TGI (KM12 colon),TGI (HT29 colon) [µM],TGI (HOP-92 NSCLC),TGI (CCRF-CEM leukemia) [µM],TGI (HS 578T breast) [µM],TGI (SK-MEL-5 melanoma) [µM],GI50 (HL-60(TB) leukemia) [µM],GI50 (CCRF-CEM leukemia) [µM],GI50 (SF-295 CNS) [µM]
Oc1[nH]c2ccccc2c1N=Nc1nc(-c2ccccc2)cs1,28.9,,,63.1 µM,> 100 µM,> 100,> 100 µM,,,> 100,,,
O=C(c1ccccc1)n1c2ccc(Br)cc2c2nc3ccccc3nc21,> 100,> 100,> 100,> 100 µM,> 100 µM,> 100,> 100 µM,> 100,,> 100,,,
Nc1c(/C=C/c2cc3cc(C4=NCCN4)ccc3o2)[nH]c2cc(C3=NCCN3)ccc12,> 100,> 100,,> 100 µM,> 100 µM,> 100,> 100 µM,,> 100,> 100,,,
CC(C)(C)OC(=O)NCCCCC1NC(=O)[C@@H]2Cc3c([nH]c4ccccc34)C(c3ccccc3)N2C1=O (some centres undefined),,52.3,> 100,45.4 µM,> 100 µM,87.5,85.1 µM,> 100,49.6,97.8,,,
CCOC(=O)N/N=C(/N)Cc1ccc(Cl)cc1,> 100,,,> 100 µM,> 100 µM,> 100,> 100 µM,> 100,,> 100,,,
COc1ccc(/[N+]([O-])=C/c2ccccc2OC(=S)S)cc1,52,70.8,> 100,> 100 µM,> 100 µM,49.7,64.4 µM,,> 100,> 100,,,
NS(=O)(=O)c1cc2c(cc1Cl)NC(C(=O)NNC(=O)c1ccncc1)=NS2(=O)=O,> 100,> 100,> 100,> 100 µM,> 100 µM,> 100,> 100 µM,> 100,,> 100,,,
CCCCC(C)(C/C=C/[C@@H]1[C@@H](C(O)CCCCCC(=O)OC)C(=O)C[C@H]1O[Si](C)(C)C(C)(C)C)O[Si](C)(C)C (some centres undefined),> 100,,> 100,> 100 µM,> 100 µM,> 100,> 100 µM,85.4,,> 100,,,
O=C(Nc1nc2ccc([N+](=O)[O-])cc2s1)c1cc([N+](=O)[O-])ccc1Cl,6.71,,10.4,14.8 µM,50.5 µM,6.03,2.97 µM,,,2.83,,,
Cc1cccc2c1Oc1ncccc1C2NC(=O)CN(C)C (centres undefined),> 10,> 10,> 10,> 10 µM,> 10 µM,> 10,> 10 µM,> 10,,,,,
CCOC(=O)Oc1ccc2[nH]c3c(C)cc(N)c(C)c3c2c1,> 100,> 100,> 100,> 100 µM,> 100 µM,> 100,,> 100,,> 100,,,
COc1ccc(NC(=S)Nc2cccc(C)n2)cc1,> 100,> 100,,> 100 µM,> 100 µM,> 100,> 100 µM,> 100,> 100,> 100,,,
CCOC(=O)C1=C(O)c2c(OC)ccc(OC)c2C(=O)C1=O,> 100,> 100,> 100,> 100 µM,> 100 µM,> 100,> 100 µM,> 100,,> 100,,,
O=[N+]([O-])c1cccc2c1[nH]c1c(-c3ccccc3)nccc12,> 69,4.35,6.43,12.1 µM,12.3 µM,10.4,3.05 µM,21.9,,3.46,,,
CCOC(=O)c1sc2nc(SC)nc3c2c1NCN3c1ccccc1Cl,,,74.4,> 100 µM,> 100 µM,> 100,57.6 µM,> 100,73.3,> 100,,,
O=C1C[C@@]23CCC4(CC2=CCC[C@H]3O1)OCCO4,> 100,> 100,> 100,> 100 µM,> 100 µM,> 100,> 100 µM,,> 100,> 100,,,
O=P1(C(O)c2ccccc2)N(Cc2ccccc2)[C@@H]2CCCC[C@H]2N1Cc1ccccc1 (some centres undefined),45.6,47.2,73.1,56.6 µM,> 100 µM,46.3,,> 100,45.5,> 100,,,
O=C(NCc1ccc(Cl)c(Cl)c1)c1nc2ccccc2nc1NCc1ccc(Cl)c(Cl)c1,> 100,> 100,,> 100 µM,> 100 µM,> 100,> 100 µM,> 100,> 100,> 100,,,
C[C@@H](c1ccccc1)N(CC#N)[C@H]1CCC[C@]1(O)/C=C/c1ccc2c(c1)OCO2,,> 25,> 25,> 25 µM,> 25 µM,> 25,> 25 µM,> 25,> 25,> 25,,,
CC(=O)OCc1cc2c(s1)C(=O)c1sccc1C2=O,0.285,,0.659,0.162 µM,0.562 µM,1.43,1.68 µM,,0.422,0.0569,,,
CC(C)S1=C2C(=O)CC(C)(C)CC2=Nc2ccccc21 (centres undefined),,,> 100,> 100 µM,> 100 µM,> 100,> 100 µM,> 100,> 100,> 100,,,
CCCSC1=N/C(=C\c2ccco2)C(=O)N1,> 100,,> 100,> 100 µM,> 100 µM,> 100,> 100 µM,,> 100,,,,
COc1ccc(-c2cc(-c3ccc(Nc4ccnc5cc(C(F)(F)F)ccc45)cc3)nc(N)c2C#N)c2ccccc12,> 100,> 100,> 100,> 100 µM,> 100 µM,,> 100 µM,,> 100,> 100,,,
